Values of other authors, collected in patent US20240108682A1, “COMPOSITIONS AND METHODS FOR INCREASING GLUTATHIONE LEVELS” (Lile Method Research, LLC, priority 2022, published 2024).

Conditions: Lu SC, Curr Top Cell Regul 36:95-116 (2000)

Compound: N[C@@H](CCC(=O)N[C@@H](CS)C(=O)NCC(=O)O)C(=O)O [glutathione, L-γ-glutamyl-L-cysteinylglycine]
- half-life of glutathione in the blood: seconds to minutes
